Measured values taken from patent publication US9487494B2, “Cyclic hydrocarbon compounds for the treatment of diseases” (LEO PHARMA A/S, priority 2007, dated 2016).

Key:
[1] = target: recombinant human P450 2D6 (Homo sapiens (Human), UniProt P10635); test: Screening for P450 2D6 inhibition (fluorescent AMMC substrate); format: in vitro ADME; details: recombinant human P450 CYP2D6, AMMC substrate, 30 min
Method: The assay rapidly screen for potential inhibitors of human P450 2D6 catalytic activity, by using recombinant human P450 2D6. The IC50 determination is performed in duplicate at eight concentrations.
Incubations were conducted in 96 well microtiter plates based on a method described by BD Biosciences. To the first well in each row, a NADPH regenerating system and test compound was added. In the second well and all remaining wells, NADPH regenerating system and acetonitrile (final concentration of 2%) was added. The final assay concentration of the NADPH regenerating system was 8.2 μM NADP^+, 0.41 mM glucose-6-phosphate, 0.41 mM magnesium chloride hexahydrate and 0.4 U/ml glucose-6-phosphate dehydrogenase and 0.01 mg/mL control insect cell membrane protein. The test compound solution was serially diluted 1:3 through the eighth wells.
The final concentration of the test compounds were in the range 100 μM to 45.7 nM in the eight rows. Wells 9 and 10 contained no test compound (only NADPH regenerating system and enzyme/substrate mix) and wells 11 and 12 were used as controls for background fluorescence (enzyme and substrate were added after the reaction was terminated). The plate was then pre-incubated at 37° C. for 10 min, and the reaction was initiated by the addition of pre-warmed enzyme/substrate mix. The assay concentration of the enzyme/substrate mix was 100 mM potassium phosphate, pH 7.4, 1.5 pmol recombinant human P450 CYP2D6 and 1.5 μM of the fluorescent substrate 3-[2-(N,N diethyl-N-methylamino)ethyl]-7-methoxy-4-methylcounnarin (AMMC). The assay was conducted in duplicate in a final volume of 200 μL per well. Reactions were terminated after 30 min by addition of a 4:1, acetonitrile:0.5 M Tris base solution. Quinidine was used as positive control, 0.5 μM as highest concentration. Fluorescence per well was measured using a fluorescence plate reader (excitation: 390 nm, emission: 460 nm). The IC50 values were calculated.

[2] = tested on: normal male Sprague Dawley rats; test: In vivo test in normal rats (serum PTH and calcium); set-up: species or system rat; details: for PTH suppression / Suppression of Ca^2+: 1 mg/kg p.o., single dose, 2 hours after dosing, compared to vehicle-treated animals; for ED50: Rattus norvegicus, 2 h, oral single doses, blood two hours thereafter, normal rats, read-out: ED50 with respect to PTH suppression
Method: Various compounds were administered to normal male Sprague Dawley rats in order to examine the pharmacological effect on serum levels of total calcium and parathyroid hormone (PTH). The experiments were performed by orally administering a single dose of the respective compounds as compared to vehicle-treated animals or animals treated with the competitor compound Cinacalcet.
As a standard, a group of six animals were treated orally with 1 mg/kg of compound as a 1% methylcellulose suspension and two hours thereafter, blood was obtained by retro-orbital bleeding under anaesthesia and the serum calcium and PTH levels were measured.
In some instances, rats were treated orally with various doses of a given compound in 1% methylcellulose (six rats/dose) and blood was obtained by retro-orbital bleeding two hours thereafter. Using the software GraphPad Prism® 5, ED50 values for Cinacalcet, Compound 1056, Compound 1186, and Compound 1190 with respect to PTH suppression were calculated to be 0.9 mg/kg, 0.1 mg/kg, 0.04 mg/kg, and 0.002 mg/kg, respectively.
For some compounds, rats were bled at several time-points after oral administration (six rats/time point), and suppression of serum PTH levels was observed over time.

[3] = tested on: rat 5/6 nephrectomy model; test: In vivo test using the 5/6 nephrectomy model in rats (secondary hyperparathyroidism); details: 336 h, oral once daily for two weeks, 5/6 nephrectomized rats, read-out: ED50, PTH lowering effect
Excerpt: The lowering effect of different compounds on serum PTH was examined in vivo in the rat 5/6 nephrectomy model which is a widely accepted animal model of secondary hyperparathyroidism.
Two-third of the rats' (Sprague Dawley, at least 8 weeks old) left kidney was surgically removed followed by removal of the right kidney one week later.
After disease initiation, blood was obtained by retro-orbital bleeding and urine was collected using metabolic cages. Serum PTH, calcium, phosphorus, albumin, creatinine, and BUN as well as urinary creatinine and albumin were measured. Rats were then stratified into different treatment groups (9-12 rats/group) based on the results obtained. One group of normal rats without surgery served as control (“control”) and one group of nephrectomized rats treated with vehicle (1% Methylcellulose) was used as another control (“5/6 NEPX”). All other groups were treated orally with test compound at various doses once daily for two weeks and the above mentioned parameters were monitored weekly.

Sequence of recombinant human P450 2D6 (P10635 whole entry): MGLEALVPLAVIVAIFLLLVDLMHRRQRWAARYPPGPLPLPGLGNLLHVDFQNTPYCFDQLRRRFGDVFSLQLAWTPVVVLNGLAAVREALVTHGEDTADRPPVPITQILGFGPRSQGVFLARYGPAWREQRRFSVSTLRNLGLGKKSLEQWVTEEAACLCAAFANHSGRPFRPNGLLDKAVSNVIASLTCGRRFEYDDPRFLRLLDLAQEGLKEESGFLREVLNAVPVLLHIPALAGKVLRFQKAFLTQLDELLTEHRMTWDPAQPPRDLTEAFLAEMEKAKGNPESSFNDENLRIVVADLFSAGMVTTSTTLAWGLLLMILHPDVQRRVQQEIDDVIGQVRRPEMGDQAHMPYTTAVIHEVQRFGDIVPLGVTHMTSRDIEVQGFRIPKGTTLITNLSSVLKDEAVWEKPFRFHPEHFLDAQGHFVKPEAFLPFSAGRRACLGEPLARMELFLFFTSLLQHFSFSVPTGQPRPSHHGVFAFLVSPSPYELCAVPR

SMILES | IC50 [1] [µM] | PTH suppression [2] [%] | Suppression of Ca^2+ [2] [%] | ED50 [2] [mg/kg] | ED50 [3] [mg/kg]
C[C@@H](N[C@H]1CC[C@@H](c2ccc(OCC(=O)O)cc2)C1)c1cccc2ccccc12 [Compound 1186, {4-[(1R,3S)-3-((R)-1-Naphthalen-1-yl-ethylamino)-cyclopentyl]-phenoxy}-acetic acid] | 50 | 98 | 6 | 0.04 | ~0.3
C[C@@H](N[C@H]1CCC[C@H](c2ccc(C(=O)NCC(=O)O)cc2)C1)c1cccc2ccccc12 [Compound 1115, {4-[(1S,3S)-3-((R)-1-Naphthalen-1-yl-ethylamino)-cyclohexyl]-benzoylamino}-acetic acid] | 13 | 50 | 3 | – | –
C[C@@H](N[C@H]1CCC[C@H](c2ccc(C(=O)N3CC(C(=O)O)C3)cc2)C1)c1cccc2ccccc12 [Compound 1142, 1-{4-[(1S,3S)-3-((R)-1-Naphthalen-1-yl-ethylamino)-cyclohexyl]-benzoyl}-azetidine-3-carboxylic acid] | 25 | – | – | – | –
C[C@@H](N[C@H]1CCC[C@H](c2ccc(C(=O)N3CCC(C(=O)O)CC3)cc2)C1)c1cccc2ccccc12 [Compound 1146, 1-{4-[(1S,3S)-3-((R)-1-Naphthalen-1-yl-ethylamino)-cyclohexyl]-benzoyl}-piperidine-4-carboxylic acid] | 16 | 84 | 0 | – | –
C[C@@H](NC1CC[C@H](c2ccc(C(=O)O)cc2)C1)c1cccc2ccccc12 (stereo partly drawn) [Compound 1338, 4-[3-((R)-1-Naphthalen-1-yl-ethylamino)-cyclopentyl]-benzoic acid] | 100 | 85 | 29 | – | –
C[C@@H](N[C@H]1CCC[C@H](c2ccc(C(=O)NCCC(=O)O)cc2)C1)c1cccc2ccccc12.Cl [Compound 1136, 3-{4-[(1S,3S)-3-((R)-1-Naphthalen-1-yl-ethylamino)-cyclohexyl]-benzoylamino}-propionic acid hydrochloride] | 10 | 61 | 7 | – | –
C[C@@H](NC1CCC(c2ccc(OCC(=O)O)cc2)C1)c1cccc2ccccc12 (stereo partly drawn) [Compound 1188, {4-[3-((R)-1-Naphthalen-1-yl-ethylamino)-cyclopentyl]-phenoxy}-acetic acid] | – | 97 | 12 | – | –
C[C@@H](N[C@H]1CC[C@H](c2ccc(CCC(=O)O)cc2)C1)c1cccc2ccccc12.Cl [Compound 1190, 3-{4-[(1S,3S)-3-((R)-1-Naphthalen-1-yl-ethylamino)-cyclopentyl]-phenyl}-propionic acid hydrochloride] | 79 | 93 | 18.5 | 0.002 | ~0.01
C[C@@H](NCCCc1cccc(C(F)(F)F)c1)c1cccc2ccccc12 [Cinacalcet, reference compound] | 0.05 | 48 | 5 | 0.9 | ~20
C[C@@H](NC1CCCC(c2ccc(C(=O)O)cc2)C1)c1cccc2ccccc12 (stereo partly drawn) [Compound 1056, 4-[3-((R)-1-naphthalen-1-yl-ethylamino)-cyclohexyl]-benzoic acid] | 10 | 85 | 1 | 0.1 | ~2
